Consider two compounds from US6426222B1, “Method for inducing osteoblast differentiation of human extramedullary adipose tissue cells” (Bio Holdings International Limited, priority 1997, dated 2002).

Test [1] relates to human extramedullary adipose tissue cells. The test is described as follows: Alkaline phosphatase activity of treated cultures (para-nitrophenol phosphate substrate). In kind it is cell-based. To be noted: dexamethasone 10^-7 M.
Experimental: Adipose tissue biopsies were taken during plastic surgery of the abdomen on healthy patients, of ages of from 25 to 50.
The tissues taken were sliced thinly into small fragments and digested for 90 minutes with collagenase (2 mg/ml) in a Krebs Ringer buffer at 37° C. Filtering was performed on a screen having a pore size of 100 μm, the filtrate was recovered, and centrifuged at 1000 revolutions per minute (rpm) for 5 min. The supernatant was removed and the pellet was washed several times in Krebs Ringer buffer. The washing and centrifuging steps were repeated several times and on each occasion the supernatant containing mature adipocytes was removed. The resulting cells were suspended in DME/F12 (Sigma Chemical Co., St. Louis, Mo. USA; reference D-6905) culture medium containing 10% fetal calf serum, 100 μg/ml streptomycin, and 100 U/ml penicillin.
Polystyrene culture dishes (“tissue culture flasks” sold by Becton-Dickinson under the references 3013, 3028, and 3084) were inoculated with the resulting cell suspension and incubation was performed at 37° C. under an atmosphere of moist air with 5% additional CO2. […]
The quantity of para-nitrophenol formed upon hydrolysis of the substrate was determined by measuring the absorbance at 410 nm, which was converted into nanomoles of enzyme using a calibration curve established on the basis of known concentrations of para-nitrophenol.
In test [2] the target is intestine type alkaline phosphatase (Homo sapiens, UniProt P09923). As to conditions: read-out: levamisole concentration for 50% inhibition of activity, intestine type alkaline phosphatase; cited from earlier work.
Chain of intestine type alkaline phosphatase (P09923 20-503 limits assumed): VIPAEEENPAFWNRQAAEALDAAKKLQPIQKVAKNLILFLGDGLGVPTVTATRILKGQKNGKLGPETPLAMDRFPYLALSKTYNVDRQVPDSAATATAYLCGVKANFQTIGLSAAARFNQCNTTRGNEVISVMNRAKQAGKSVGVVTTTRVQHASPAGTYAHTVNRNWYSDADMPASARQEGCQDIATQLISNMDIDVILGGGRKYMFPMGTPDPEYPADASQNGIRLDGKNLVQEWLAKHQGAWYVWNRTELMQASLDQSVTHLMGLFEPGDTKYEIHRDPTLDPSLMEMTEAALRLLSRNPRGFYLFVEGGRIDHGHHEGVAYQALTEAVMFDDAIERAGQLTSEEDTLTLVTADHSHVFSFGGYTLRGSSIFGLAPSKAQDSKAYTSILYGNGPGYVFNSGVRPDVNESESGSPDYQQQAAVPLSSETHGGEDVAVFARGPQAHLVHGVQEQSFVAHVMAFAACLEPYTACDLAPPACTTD
In test [3] the target is placenta type alkaline phosphatase (Homo sapiens, UniProt P05187). As to conditions: read-out: levamisole concentration for 50% inhibition of activity, placenta type alkaline phosphatase; cited from earlier work.
Chain of placenta type alkaline phosphatase (P05187 23-506 limits assumed): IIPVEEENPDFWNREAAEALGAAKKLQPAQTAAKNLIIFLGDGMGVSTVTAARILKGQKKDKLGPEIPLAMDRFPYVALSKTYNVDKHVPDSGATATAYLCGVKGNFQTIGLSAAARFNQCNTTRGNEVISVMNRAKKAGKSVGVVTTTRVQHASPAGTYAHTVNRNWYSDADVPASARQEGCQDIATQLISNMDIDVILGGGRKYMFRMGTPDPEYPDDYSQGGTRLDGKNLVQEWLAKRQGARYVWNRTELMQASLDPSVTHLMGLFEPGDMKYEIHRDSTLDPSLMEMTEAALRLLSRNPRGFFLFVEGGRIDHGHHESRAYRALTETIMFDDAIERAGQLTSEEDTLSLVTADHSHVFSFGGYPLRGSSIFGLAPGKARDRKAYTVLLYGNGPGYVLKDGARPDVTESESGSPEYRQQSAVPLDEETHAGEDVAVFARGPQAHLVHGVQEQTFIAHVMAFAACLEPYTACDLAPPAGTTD

Take `C[C@@H]1C[C@H]2[C@@H]3CCC4=CC(=O)C=C[C@]4(C)[C@@]3(F)[C@@H](O)C[C@]2(C)[C@@]1(O)C(=O)CO` [dexamethasone]: in test [1], the “alkaline phosphatase activity, observed in nearly all cases” value is “not less than 200 nanomoles of para-nitrophenol/30 min/well” and the “alkaline phosphatase activity, sometimes as high as” value is recorded as no more than 700 nanomoles/30 min/well.
Turning to `c1ccc([C@H]2CN3CCSC3=N2)cc1` [levamisole], the results for the IC50 in test [2] and in test [3] were roughly 3000 µM and roughly 1000 µM, respectively.
